Where two headings read alike, the source gives them in different places.

Assay [1] deals with lasered (hypertensive) eyes of conscious cynomolgus monkeys. Description: Acute IOP response in lasered (hypertensive) eyes of conscious cynomolgus monkeys. It counts as in vivo. As to conditions: instilled in right eye, IOP measured at 1, 3 and 6 hours, peak reduction; for Peak % Lowering of IOP vs. Control at 0.3%: compound concentration 0.3%. The text has this:
Acute IOP Response in Lasered (Hypertensive) Eyes of Conscious Cynomolgus Monkeys
Intraocular pressure (IOP) can be determined with an Alcon Pneumatonometer after light corneal anesthesia with 0.1% proparacaine. Eyes are washed with saline after each measurement. After a baseline IOP measurement, test compound is instilled in one […] aliquot to the right eyes only of nine cynomolgus monkeys. Vehicle is instilled in the right eyes of six additional animals. Subsequent IOP measurements are taken at 1, 3, and 6 hours, and peak reduction in IOP is reported below in Table 2 as percent of IOP lowering versus the control for each of the given concentrations of compound.
A more detailed description of the assay used herein may be found in May et al., “Evaluation of the Ocular Hypotensive Response of Serotonin 5-HT1A and 5-HT2 Receptor Ligands in Conscious Ocular Hypertensive Cynomolgus Monkeys,” J. of Pharmacology and Experimental Therapeutics, vol. 306(1), pp. 301-309 (2003), the disclosure of which is hereby incorporated by reference as if written herein in its entirety.

For assay [2], the target named is T1, recombinant N-terminal GST-tagged human Rho kinase 2 (ROCK2, amino acids 1-552) (Homo sapiens, UniProt O75116).
T1 construct: ROCK2, amino acids 1-552; purchased Invitrogen Inc. PV3759
T1 sequence (O75116 1-552): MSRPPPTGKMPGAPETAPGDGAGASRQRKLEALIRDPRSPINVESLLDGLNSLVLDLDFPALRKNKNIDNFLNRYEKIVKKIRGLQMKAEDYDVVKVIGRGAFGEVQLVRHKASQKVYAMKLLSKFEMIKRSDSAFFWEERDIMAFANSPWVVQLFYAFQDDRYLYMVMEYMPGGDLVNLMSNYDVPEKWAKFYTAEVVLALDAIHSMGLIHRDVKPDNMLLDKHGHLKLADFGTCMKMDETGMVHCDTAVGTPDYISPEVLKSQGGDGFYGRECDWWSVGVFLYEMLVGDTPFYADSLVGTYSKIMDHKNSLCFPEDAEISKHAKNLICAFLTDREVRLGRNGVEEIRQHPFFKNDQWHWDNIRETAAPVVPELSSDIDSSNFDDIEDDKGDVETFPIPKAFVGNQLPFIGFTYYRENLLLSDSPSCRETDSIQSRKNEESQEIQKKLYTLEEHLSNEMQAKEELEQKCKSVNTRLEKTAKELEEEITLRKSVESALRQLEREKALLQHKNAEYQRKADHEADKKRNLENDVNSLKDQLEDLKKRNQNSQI
In words: In vitro Rho kinase assay (luciferase-based ATP consumption), ROCK2. The format is biochemical. The gist of the method: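 Luciferase-based luminescence of leftover ATP after 2 h at 30 °C, where inhibition raises signal, reports activity of GST-tagged ROCK2 (aa 1-552) at 0.82 μg/ml. Conditions: S6 peptide 100 μg/ml, […], pH 7.5 Tris buffer. Results given as percent of H-1152P control activity.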

In assay [3] the target is T2, recombinant N-terminal GST-tagged human Rho kinase 1 (ROCK1, amino acids 1-535) (Homo sapiens, UniProt Q13464).
T2 construct: ROCK1, amino acids 1-535; purchased Invitrogen Inc. PV-3691
T2 sequence (Q13464 1-535): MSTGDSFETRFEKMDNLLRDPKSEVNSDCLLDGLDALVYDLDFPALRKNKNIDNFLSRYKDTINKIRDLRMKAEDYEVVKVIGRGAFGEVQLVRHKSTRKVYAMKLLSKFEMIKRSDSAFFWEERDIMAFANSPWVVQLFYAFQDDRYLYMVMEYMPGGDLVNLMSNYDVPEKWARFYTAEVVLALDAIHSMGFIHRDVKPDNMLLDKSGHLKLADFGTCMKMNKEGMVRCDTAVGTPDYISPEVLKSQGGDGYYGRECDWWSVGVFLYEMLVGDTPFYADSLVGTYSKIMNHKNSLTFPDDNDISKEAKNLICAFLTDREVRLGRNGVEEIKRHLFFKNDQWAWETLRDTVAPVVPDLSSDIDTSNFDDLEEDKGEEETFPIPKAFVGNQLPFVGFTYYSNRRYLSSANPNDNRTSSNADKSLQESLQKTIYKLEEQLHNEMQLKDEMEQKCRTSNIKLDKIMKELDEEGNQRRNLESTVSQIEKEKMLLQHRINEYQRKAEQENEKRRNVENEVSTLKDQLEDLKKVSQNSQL
Description: In vitro Rho kinase assay (luciferase-based ATP consumption), ROCK1. The format is biochemical. The gist of the method: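 ATP depletion measured by firefly luciferase luminescence after 2 h at 30 °C, with inhibition raising signal and activity expressed relative to H-1152P. Reaction: 0.82 μg/ml recombinant GST-tagged ROCK1 (aa 1-535), S6 peptide 100 μg/ml, […], pH 7.5 Tris buffer.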

The mark [4] stands for this setting: recombinant GST-tagged human ROCK2, luciferase-based ATP consumption, read-out: ROCK2 IC50.
Where [5] appears, read: recombinant GST-tagged human ROCK1, luciferase-based ATP consumption, read-out: ROCK1 IC50.

With `Cc1c(-c2ccnc(N)n2)sc2ccc(Cc3cccc(O)c3)cc12` [Example 27, 3-((2-(2-Aminopyrimidin-4-yl)-3-methylbenzo[b]thiophen-5-yl)methyl)phenol], the “Peak % Lowering of IOP vs. Control at 0.3%” value (“Peak % Lowering … at 0.3%” below) in assay [1] came out at 3.6%. The IC50 in assay [2] (setting [4]) and in assay [3] (setting [5]) was < 5 µM throughout.
In the case of `COc1cccc(Cc2ccc3sc(-c4ccnc(N)n4)c(C)c3c2)c1` [Example 26, 4-(5-(3-Methoxybenzyl)-3-methylbenzo[b]thiophen-2-yl)pyrimidin-2-amine], the “Peak % Lowering … at 0.3%” value in assay [1] amounted to 9.8%. The IC50 in assay [2] (setting [4]) and in assay [3] (setting [5]) was < 5 µM in each case.
For the compound `COc1cccc(Nc2ccc3sc(-c4ccnc(N)n4)c(C)c3c2)c1` [Example 51, 4-(5-(3-Methoxyphenylamino)-3-methylbenzo[b]thiophen-2-yl)pyrimidin-2-amine], the “Peak % Lowering … at 0.3%” value in assay [1] is listed as 9.5%. Also, the “Peak % Lowering of IOP vs. Control at 1.0%” value in assay [1] (compound concentration 1.0%) turned out to be 18.6%. In addition, the IC50 in assay [2] (setting [4]) and in assay [3] (setting [5]) was < 5 µM in each case.
For the compound `Cc1c(-c2cccnc2N)sc2ccc(Cl)cc12` [Example 11, 3-(5-Chloro-3-methylbenzo[b]thiophen-2-yl)pyridin-2-amine], the IC50 in assay [2] (setting [4]) and in assay [3] (setting [5]) was > 5 µM in each case.
Turning to `Cc1c(-c2ccnc(N)n2)sc2ccc(CNC(=O)c3cc(F)c(F)c(O)c3F)cc12` [Example 248, Cc1c(sc2ccc(CNC(═O)c3cc(F)c(F)c(O)c3F)cc12)-c4ccnc(N)n4], the IC50 in assay [2] (setting [4]) and in assay [3] (setting [5]) was < 5 µM each time.
Turning to `Cc1c(-c2ccnc(N)n2)sc2ccc(Nc3ccnc(O)n3)cc12` [Example 75, 4-(2-(2-Aminopyrimidin-4-yl)-3-methylbenzo[b]thiophen-5-ylamino)pyrimidin-2-ol], the IC50 in assay [2] (setting [4]) and in assay [3] (setting [5]) was < 5 µM each time.
In the case of `CC1=NN(c2ccc(C(=O)NCc3ccc4sc(-c5ccnc(N)n5)c(C)c4c3)cc2)C(=O)C1` [Example 295, CC1═NN(C(═O)C1)c2ccc(cc2)C(═O)NCc3ccc4sc(c(C)c4c3)-c5ccnc(N)n5], the IC50 – broadly, the midpoint of a concentration-inhibition curve – in assay [2] (setting [4]) was > 5 µM; in assay [3] (setting [5]), < 5 µM.
The like results for `Cc1c(-c2ccnc(N)n2)sc2ccc(CNC(=O)Cc3c(F)cccc3F)cc12` [Example 188, Cc1c(sc2ccc(CNC(═O)Cc3c(F)cccc3F)cc12)-c4ccnc(N)n4] were, in that order, < 5 µM and < 5 µM.
The like results for `Cc1c(-c2ccnc(N)n2)sc2ccc(Cc3cccc(C(=O)NCCN4CCOCC4)c3)cc12` [Example 48, 3-((2-(2-Aminopyrimidin-4-yl)-3-methylbenzo[b]thiophen-5-yl)methyl)-N-(3-morpholinoethyl)benzamide] were, in that order, < 5 µM and < 5 µM.
Take `Cc1c(-c2ccnc(N)n2)sc2ccc(CNC(=O)c3c(F)cccc3Cl)cc12` [Example 195, Cc1c(sc2ccc(CNC(═O)c3c(F)cccc3Cl)cc12)-c4ccnc(N)n4]: the IC50 in assay [2] (ROCK2 IC50, recombinant GST-tagged human ROCK2, luciferase-based ATP consumption) is < 5 µM; in assay [3] (ROCK1 IC50, recombinant GST-tagged human ROCK1, luciferase-based ATP consumption), < 5 µM.
For `Cc1c(-c2ccnc(N)n2)sc2ccc(CNC(=O)c3cc(Cl)ccn3)cc12` [Example 151, Cc1c(sc2ccc(CNC(═O)c3cc(Cl)ccn3)cc12)-c4ccnc(N)n4], the IC50 in assay [2] (setting [4]) and in assay [3] (setting [5]) was < 5 µM in each case.
`Cc1c(-c2ccnc(N)n2)sc2ccc(CNC(=O)C(O)CCl)cc12` (centres unmarked) [Example 112, Cc1c(sc2ccc(CNC(═O)C(O)CCl)cc12)-c3ccnc(N)n3]: the IC50 is < 5 µM in assay [2] (setting [4]) and > 5 µM in assay [3] (setting [5]).
For `Cc1c(-c2ccnc(N)n2)sc2ccc(CNC(=O)c3ccc(N(C)C=O)cc3)cc12` [Example 205, CN(C═O)c1ccc(cc1)C(═O)NCc2ccc3sc(c(C)c3c2)-c4ccnc(N)n4], in that order: < 5 µM and < 5 µM.
For `CC(=O)c1ccc(C(=O)NCc2ccc3sc(-c4ccnc(N)n4)c(C)c3c2)cc1` [Example 162, CC(═O)c1ccc(Cc1)C(═O)NCc2ccc3sc(c(C)c3c2)-c4ccnc(N)n4], in that order: < 5 µM and > 5 µM.
With `Cc1c(-c2ccnc(N)n2)sc2ccc(CNC(=O)c3ccccc3C=O)cc12` [Example 129, Cc1c(sc2ccc(CNC(═O)c3ccccc3C═O)cc12)-c4ccnc(N)n4], the IC50 in assay [2] (setting [4]) and in assay [3] (setting [5]) was < 5 µM in each case.
As to `Cc1c(-c2ccnc(N)n2)sc2cnccc12` [Example 18, 4-(3-Methylthieno[2,3-c]pyridin-2-yl)pyrimidin-2-amine], the IC50 in assay [2] (setting [4]) and in assay [3] (setting [5]) was < 5 µM in each case.
For `Cc1c(-c2ccnc(N)n2)sc2ccc(Nc3cccc(OCc4ccccc4)c3)cc12` [Example 55, 4-(5-(3-(Benzyloxy)phenylamino)-3-methylbenzo[b]thiophen-2-yl)pyrimidin-2-amine], the IC50 in assay [2] (setting [4]) and in assay [3] (setting [5]) was < 5 µM in each case.

For the origin of these results see US20080021026A1, “BENZOTHIOPHENE INHIBITORS OF RHO KINASE” (priority 2006, published 2008).
